Laboratory results taken from patent US5225583A, “Alkyl-aryl 1,3-propanedione silicone derivative and an external preparation for skin with the derivative compounded therein” (Shiseido Co., Ltd., priority 1991, dated 1993).

Legend:
[1] = Test for solubility of alkyl-aryl 1,3-propanedione silicone derivative in silicone-based oils and Squalene at 25° C.; assay type: physicochemical; conditions: for Solubility, Scwr, 30% / Solubility, Scwr, 50%: Scwr (Squalene); for Solubility, Scwr, 30%: 30% (w/w); for Solubility, Scwr, 50%: 50% (w/w); for Solubility, Silicon KF56, 30%: Silicone KF 56, 30% (w/w); for Solubility, Silicon KF56, 50%: Silicone KF 56, 50% (w/w); for Solubility, Sil. KF96, 30%: Silicone KF96, 30% (w/w); for Solubility, Sil. KF96, 50%: Silicone KF96, 50% (w/w)
Experimental: A circle (O) mark is put to a compound which is completely dissolved under 25° C., and a cross (X) mark is put to a compound which makes the solution cloudy even a little.

[2] = Ultraviolet ray absorption spectrum; assay type: physicochemical; parameters: ε: unit not given beside the values; conditions: for ε: at λmax; for λmax: ultraviolet ray absorption

SMILES	Solubility, Scwr, 30% [1]	Solubility, Scwr, 50% [1]	Solubility, Silicon KF56, 30% [1]	Solubility, Silicon KF56, 50% [1]	Solubility, Sil. KF96, 30% [1]	Solubility, Sil. KF96, 50% [1]	ε [2]	λmax [2]
COc1cc(C(=O)CC(=O)C(C)(C)C)ccc1OCCC[Si](C)(C)O[Si](C)(C)C [Compound 1]	.largecircle.	.largecircle.	.largecircle.	.largecircle.	.largecircle.	.largecircle.	24090	335 nm
COc1cc(C(=O)CC(=O)C(C)(C)C)ccc1OCCC[Si](C)(O[Si](C)(C)C)O[Si](C)(C)C [Compound 2]	.largecircle.	.largecircle.	.largecircle.	.largecircle.	.largecircle.	.largecircle.	23550	334 nm
COc1ccc(C(=O)CC(=O)C(C)(C)C)cc1OCCC[Si](C)(O[Si](C)(C)C)O[Si](C)(C)C [Compound 3]	.largecircle.	.largecircle.	.largecircle.	.largecircle.	.largecircle.	.largecircle.		
CCCCC(CC)C(=O)CC(=O)c1cc(CCC[Si](C)(O[Si](C)(C)C)O[Si](C)(C)C)c(OC)c(OC)c1 (centres unmarked) [Compound 5]	.largecircle.	.largecircle.	.largecircle.	.largecircle.	.largecircle.	.largecircle.	23500	334 nm
CCCCC(CC)C(=O)CC(=O)c1cc(CCC[Si](C)(O[Si](C)(C)C)O[Si](C)(C)C)c(OC)c(OC)c1 (centres unmarked) [Compound 6]	.largecircle.	.largecircle.	.largecircle.	.largecircle.	.largecircle.	.largecircle.		
COc1cc(C(=O)CC(=O)C(C)(C)C)ccc1OCC(C)C[Si](C)(O[Si](C)(C)C)O[Si](C)(C)C (centres unmarked) [Compound 7]	.largecircle.	.largecircle.	.largecircle.	.largecircle.	.largecircle.	.largecircle.	27350	334 nm
COc1cc(C(=O)CC(=O)C(C)(C)C)ccc1OCCCCC[Si](C)(O[Si](C)(C)C)O[Si](C)(C)C [Compound 8]	.largecircle.	.largecircle.	.largecircle.	.largecircle.	.largecircle.	.largecircle.	23220	334 nm
COc1cc(C(=O)CC(=O)C(C)(C)C)cc(CCC[Si](C)(O[Si](C)(C)C)O[Si](C)(C)C)c1O [Compound 9]	.largecircle.	.largecircle.	.largecircle.	.largecircle.	.largecircle.		24000	342 nm
